# Marks after values point to notes of the source that are not given here.
# How the values were obtained:
# Type in all cases: in vivo
# Conditions in all cases: 100 = 100% disease control
# [1] = system: Erysiphe graminis f. sp. tritici; experiment: Test J: wheat powdery mildew on wheat seedlings, sprayed the day before inoculation, visual disease rating
# Outline: (§1)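 Ratings reflect a 200 ppm spray (≈500 g/ha) unless marked as 40 ppm. Plants were sprayed to run-off. The spray suspension was acetone/purified water 50/50 containing 250 ppm Trem 014, after first dissolving compound in acetone at 3% of final volume.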
# Septoria tritici = experiment: Test G: wheat leaf blotch on wheat seedlings, sprayed the day before inoculation, visual disease rating
# Outline: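 Wheat seedlings were sprayed to run-off with test suspension (acetone/water plus surfactant), generally 200 ppm (≈500 g/ha), or 40 ppm where marked. Septoria tritici spores were inoculated the next day; plants were held 48 h at 24°C in saturated atmosphere, then 19 days at 20°C before visual disease rating.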
# Botrytis cinerea = experiment: Test C: tomato Botrytis on tomato seedlings, sprayed the day before inoculation, visual disease rating
# Outline: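 Disease scored by eye on tomato seedlings inoculated with Botrytis cinerea a day after treatment. Treatment was a run-off spray at 200 ppm (equivalent to 500 g/ha), or 40 ppm where marked, in acetone/water carrying 250 ppm Trem 014.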
# [2] = system: Puccinia recondita f. sp. tritici; experiment: Test H: wheat leaf rust, test suspension sprayed after inoculation of wheat seedlings, visual disease rating
# Outline: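 Wheat seedlings inoculated with P. recondita spores, held 24 h saturated at 20 °C, then 2 days in growth chamber at 20 °C; compound suspension (acetone/water with Trem 014) sprayed to run-off afterwards. Rated visually; 200 ppm (≈500 g/ha) unless marked *, which denotes 40 ppm.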
# [3] = system: Puccinia recondita f. sp. tritici; experiment: Test I: wheat leaf rust on wheat seedlings, sprayed the day before inoculation, visual disease rating
# Outline: as §1
# Alternaria solani = experiment: Test D: tomato early blight, sprayed the day before inoculation, visual disease rating
# Outline: as §1
# Septoria nodorum = experiment: Test F: wheat glume blotch on wheat seedlings, sprayed the day before inoculation, visual disease rating
# Outline: as §1
# [4] = 200 ppm, 0 = no control relative to controls
Structure (SMILES),"Test J disease control rating [1, 4] [%]",Test G disease control rating (Septoria tritici; [4]) [%],Test C disease control rating (Botrytis cinerea; [4]) [%],"Test H disease control rating [2, 4] [%]","Test I disease control rating [3, 4] [%]",Test D disease control rating (Alternaria solani; [4]) [%],Test F disease control rating (Septoria nodorum; [4]) [%],Test J disease control rating ([1]; 40 ppm (marked *)),Test G disease control rating (Septoria tritici; 40 ppm (marked *)),Test C disease control rating (Botrytis cinerea; 40 ppm (marked *)),Test H disease control rating ([2]; 40 ppm (marked *)),Test I disease control rating ([3]; 40 ppm (marked *)),Test D disease control rating (Alternaria solani; 40 ppm (marked *)),Test F disease control rating (Septoria nodorum; 40 ppm (marked *))
Cc1nc(Br)c(Cc2c(F)cc(F)cc2F)n1-c1cc(Cl)cc(Cl)c1 [compound 541],0,0,0,0,0,0,0,,,,,,,
COc1cc(F)c(-c2c(Cl)nc(Br)n2-c2ccc(C)c(Cl)c2)c(F)c1 [compound 542],,,,,,,,89* %,97* %,99* %,0* %,98* %,96* %,0* %
Cc1nc(C)n(-c2ccc(F)cc2Cl)c1-c1ccc(Cl)c(F)c1 [compound 543],,,,,,,,0* %,97* %,99* %,0* %,95* %,60* %,0* %
COc1cc(F)c(-c2c(Cl)nc(Br)n2-c2cccc(OC(F)F)c2)c(F)c1 [compound 545],99,99,100,27,100,100,98,,,,,,,
COc1cc(F)c(-c2c(Cl)nc(Br)n2-c2ccc(OC(F)F)cc2)c(F)c1 [compound 546],100,98,100,0,100,100,99,,,,,,,
COc1cc(F)c(-c2c(Cl)nc(Br)n2-c2cccc(OC(F)(F)F)c2)c(F)c1 [compound 547],100,97,99,0,99,88,60,,,,,,,
COc1cc(F)c(-c2c(Cl)nc(Br)n2-c2ccc(OC(F)(F)F)cc2)c(F)c1 [compound 548],100,96,98,0,99,100,94,,,,,,,
COc1ccc(Cl)c(-c2c(Cl)nc(C)n2-c2ccc(Cl)cc2)c1F [compound 550],100,97,100,0,99,100,100,,,,,,,
COc1ccc(F)c(-c2c(Cl)nc(Br)n2-c2ccc(C)c(F)c2)c1F [compound 551],100,98,100,0,100,100,96,,,,,,,
COc1ccc(F)c(-c2c(Cl)nc(Cl)n2-c2ccc(C#N)cc2)c1F [compound 552],98,96,99,0,46,100,0,,,,,,,
COc1cc(F)c(-c2c(Cl)nc(Cl)n2-c2ccc(C)nc2)c(F)c1 [compound 553],100,99,100,100,100,100,100,,,,,,,
COc1cc(F)c(-c2c(Br)nc(Br)n2-c2ccc(C)nc2)c(F)c1 [compound 554],100,99,100,100,100,100,100,,,,,,,
COc1cc(F)c(-c2c(Br)ncn2-c2ccc(C)nc2)c(F)c1 [compound 555],98,98,100,0,100,99,69,,,,,,,
COc1cc(F)c(-c2c(Cl)ncn2-c2cccc(OC(F)F)c2)c(F)c1 [compound 556],97,95,100,87,100,99,98,,,,,,,
COc1cc(F)c(-c2c(Cl)ncn2-c2ccc(OC(F)F)cc2)c(F)c1 [compound 557],87,96,100,43,99,99,78,,,,,,,
COc1cc(F)c(-c2c(Cl)ncn2-c2cccc(OC(F)(F)F)c2)c(F)c1 [compound 558],100,94,100,15,99,0,0,,,,,,,
COc1cc(F)c(-c2c(Cl)ncn2-c2ccc(OC(F)(F)F)cc2)c(F)c1 [compound 559],98,95,94,29,88,41,0,,,,,,,
COc1cc(F)c(-n2cnc(C)c2-c2ccc(C)cc2)c(F)c1 [compound 560],,,,,,,,93* %,65* %,99* %,33* %,79* %,0* %,0* %
COc1ccc(F)c(-c2c(Cl)nc(Cl)n2-c2ccc(C)c(F)c2)c1F [compound 561],100,100,99,9,100,100,97,,,,,,,
COc1ccc(F)c(-c2c(Cl)nc(Cl)n2-c2ccc(Br)cc2)c1F [compound 562],100,100,100,0,99,100,99,,,,,,,
COc1ccc(F)c(-c2c(Cl)nc(Br)n2-c2ccc(Br)cc2)c1F [compound 563],100,100,100,0,94,100,100,,,,,,,
COc1cc(F)c(-n2c(Cl)nc(C)c2-c2ccc(C)cc2)c(F)c1 [compound 564],,,,,,,,100* %,99* %,99* %,66* %,100* %,100* %,64* %
COc1cc(F)c(-c2c(Cl)nc(Cl)n2-c2cccc(OC(F)F)c2)c(F)c1 [compound 565],100,96,100,97,100,100,100,,,,,,,
COc1cc(F)c(-c2c(Cl)nc(Cl)n2-c2ccc(OC(F)F)cc2)c(F)c1 [compound 566],100,97,100,97,100,100,100,,,,,,,
COc1cc(F)c(-c2c(Cl)nc(Cl)n2-c2cccc(OC(F)(F)F)c2)c(F)c1 [compound 567],100,94,99,7,99,67,0,,,,,,,

# Source: patent US20110045101A1, “FUNGICIDAL SUBSTITUTED AZOLES” (E.I. Du Pont De Nemours and Company, priority 2009, published 2011)
